Source: US8772283B2, “Imidazo-oxazine compound or salt thereof” (Taiho Pharmaceutical Co., Ltd., priority 2011, dated 2014)

Legend:
human AKT1 = human AKT1 (Homo sapiens (Human), UniProt P31749); assay: AKT1 kinase activity inhibition (TR-FRET, biotinylated Crosstide substrate); format: biochemical; conditions: preincubation 120 min at 25° C.; ATP 150 μM; Crosstide 500 nM
Protocol: (§1) Preparation of AKT1 and AKT2 and measurement of in vitro inhibitory activity of the above-mentioned compounds against AKT1 and AKT2 kinase activity were carried out with reference to the method disclosed in Biochem. J. Vol. 385, pp 399-408 (2005). In the preparation of AKT1 and AKT2, human AKT1 and AKT2 to which a middle T antigen tag was added were expressed in Sf 9 insect cells, and then AKT1 and AKT2 were prepared following affinity purification and activation by PDK1. The prepared AKT1 and AKT2 were stored at −80° C. until the time of measurement of inhibitory activity of the compounds. In the measurement of inhibitory activity of the compounds, AKT1 or AKT2 and each compound of the present invention were preincubated at 25° C. for 120 minutes in a buffer solution for reaction (15 mM Tris-HCl pH 7.5, 0.01% Tween-20, 2 mM DTT). As a substrate, biotinylated Crosstide (bioton-KGSGSGRPRTSSFAEG), MgCl2, and ATP were added to final concentrations of 500 nM, 10 mM, and 150 μM, respectively, and reactions were carried out at 25° C. for 60 minutes. The reactions were stopped by adding EDTA to a final concentration of 80 mM. Then, a detection liquid in which an Eu-labeled anti-phosphorylation Crosstide antibody (PerkinElmer) and SureLight APC-SA (PerkinElmer) were contained at a final concentration of 0.5 nM and […], respectively, was added, and reactions were carried out at room temperature for 2 hours. Finally, the amount of fluorescence at the time of irradiation of excitation light having a wavelength of 337 nm was measured at dual wavelengths of 620 nm and 665 nm by PHERAstar FS (BMG LABTECH). The amount of phosphorylation was determined from the ratio of the fluorescence amounts at the dual wavelengths. The compound concentration at which phosphorylation can be inhibited by 50% was defined as […] (nM), and the results are shown in Table 4 below.

human AKT2 = human AKT2 (Homo sapiens (Human), UniProt P31751); assay: AKT2 kinase activity inhibition (TR-FRET, biotinylated Crosstide substrate); format: biochemical; conditions: preincubation 120 min at 25° C.; ATP 150 μM; Crosstide 500 nM
Sequence of human AKT2 (P31751 whole entry): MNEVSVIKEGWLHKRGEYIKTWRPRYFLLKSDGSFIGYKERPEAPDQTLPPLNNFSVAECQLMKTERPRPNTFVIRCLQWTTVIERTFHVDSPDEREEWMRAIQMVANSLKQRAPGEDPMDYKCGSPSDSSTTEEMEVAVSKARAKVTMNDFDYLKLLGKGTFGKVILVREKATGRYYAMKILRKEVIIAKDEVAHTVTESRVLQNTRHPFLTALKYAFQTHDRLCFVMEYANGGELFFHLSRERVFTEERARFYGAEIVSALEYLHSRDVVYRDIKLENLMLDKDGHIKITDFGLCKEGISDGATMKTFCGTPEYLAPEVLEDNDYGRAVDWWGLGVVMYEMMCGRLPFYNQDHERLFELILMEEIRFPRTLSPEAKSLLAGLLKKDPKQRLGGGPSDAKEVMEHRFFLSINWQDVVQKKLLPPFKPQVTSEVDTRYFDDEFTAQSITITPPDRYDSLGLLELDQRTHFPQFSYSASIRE
Protocol: as §1

[1] = test system: AKT Ser473 phosphorylation; assay: Phosphorylated AKT (Ser473) inhibitory activity in cultured cell A2780 (Meso Scale Discovery assay); format: cell-based; conditions: A2780 cells, 3 hours treatment; average±standard deviation of three independent runs
Protocol: (§2) To evaluate the inhibitory activity of the above compounds against AKT activity, AKT Ser 473 phosphorylation and phosphorylation of S6 ribosomal protein (S6RP) (a downstream factor of Akt signal) at Ser240/Ser244, which serve as indices for the activation status of AKT, were measured in extracts of cultured cells which had been treated with the above compounds. For the measurement, assays (manufactured by Meso Scale Discovery) utilizing electrochemiluminescence based on the ELISA principle were used for both AKT Ser473 and S6RP Ser240/Ser244.
(§3) In 10% FBS-containing RPMI1640 medium (Invitrogen), ovarian cancer-derived A2780 cells in the logarithmic growth phase were seeded at 4.5×10^4 cells/150 μL/well into polylysine coated 96-well flat-bottom plates, and cultured for one day in an incubator at 5% CO2, 37° C., and 100% humidity.
(§4) Each compound of the present invention was supplied as a stock solution prepared at a concentration of 10 mM in DMSO. Using this solution, a dilution series was prepared in DMSO solvent at 200-fold of the final concentrations (10, 3, 1, 0.3, 0.1, 0.03, 0.01, 0.003 μM). The day after the cells were seeded, the compound dilution series at a 200-fold concentration was diluted 50-fold in medium for cell culture. To each well of the aforementioned A2780 cell culture plates, 50 μL of the diluted compound dilution series was added. The plates were then placed back in the incubator, and the culture was continued for 3 hours at 5% CO2, 37° C., and 100% humidity.
(§5) Meso Scale Discovery's 96-Well Multi-Spot Phospho-AKT (Ser473) Assay (K151CAA-3) and Phospho (Ser240/244)/Total S6RP Assay (K11139D-2) were used. In advance, a necessary amount of the supplied cell extract buffer was dispensed, and protease inhibitor cocktail and protein phosphatase inhibitor cocktail were added thereto, and kept cold on ice. The culture plates of the cells cultured with the compounds for 3 hours were taken out and the medium was removed. 100 μL of the cell extract buffer kept cold was added per well, followed by extraction by shaking at 300 r.p.m. for 1 hour using a plate shaker while maintaining a temperature of 4° C. Using the obtained extracts at 40 μL/well for the Phospho-AKT (Ser473) Assay and at 15 μL/well for the Phospho(Ser240/244)/Total S6RP Assay, reactions were conducted at 4° C. overnight with shaking at 300 r.p.m. according to the document attached to the kits. The next day, after the wells were washed three times with the supplied wash buffer, 50 μL/well of SULFO-TAG™ sandwich antibody solution was added, and reactions were carried out at room temperature for 1 hour. The wells were washed with the wash buffer three times, and 150 μL of the supplied Read Buffer T was added to each well. The amounts of phosphorylation of AKT and S6RP were measured by a SECTOR Imager 6000 plate reader (manufactured by Meso Scale Discovery) within 30 minutes of the Read Buffer T addition.
(§6) The extraction buffer-only background was subtracted from all of the measurement values, and AKT and S6RP phosphorylation signals in the control cell extract treated with only DMSO were defined as 100%. The compound concentrations and the levels of phosphorylated AKT and S6PR (expressed as a percentage relative to the control) in each concentration were plotted, and IC50 concentration (nM) that achieves 50% inhibition of the control was determined.

[2] = test system: S6 ribosomal protein (S6RP) Ser240/Ser244 phosphorylation; assay: Phosphorylated S6RP (Ser240/Ser244) inhibitory activity in cultured cell A2780 (Meso Scale Discovery assay); format: cell-based; conditions: A2780 cells, 3 hours treatment; average±standard deviation of three independent runs
Protocol: as §2, §3, §4, §5, §6

Sequence of human AKT1 (P31749 whole entry): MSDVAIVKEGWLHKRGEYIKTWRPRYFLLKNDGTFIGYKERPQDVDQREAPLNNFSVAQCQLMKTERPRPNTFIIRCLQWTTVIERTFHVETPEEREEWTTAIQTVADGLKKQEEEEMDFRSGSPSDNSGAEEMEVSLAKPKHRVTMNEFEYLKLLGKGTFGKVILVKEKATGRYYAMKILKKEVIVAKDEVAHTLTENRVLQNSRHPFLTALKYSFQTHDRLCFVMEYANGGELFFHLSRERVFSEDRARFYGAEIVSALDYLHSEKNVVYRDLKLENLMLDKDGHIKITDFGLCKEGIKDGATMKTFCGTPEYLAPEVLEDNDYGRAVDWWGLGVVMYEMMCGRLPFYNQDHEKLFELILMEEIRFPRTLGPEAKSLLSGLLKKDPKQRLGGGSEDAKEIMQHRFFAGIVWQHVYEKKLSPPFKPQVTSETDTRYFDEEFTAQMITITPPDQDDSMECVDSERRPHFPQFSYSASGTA

| Compound | IC50 (human AKT1) [nM] | IC50 (human AKT2) [nM] | IC50 [1] [nM] | IC50 [2] [nM] |
| --- | --- | --- | --- | --- |
| CC1(O)CC(N)(c2ccc(-c3nc4n(c3-c3ccccc3)COc3ccncc3-4)cc2)C1 (stereo not drawn) [Example 32, trans-3-amino-1-methyl-3-(4-(3-phenyl-5H-imidazo[1,2-c]pyrido[3,4-e][1,3]oxazin-2-yl)phenyl)cyclobutanol] | 6.6 | 1.1 | 40 ± 3 | 62 ± 23 |
| CC1(O)CC(N)(c2ccc(-c3nc4n(c3-c3ccccc3)COc3cc(C#N)ccc3-4)cc2)C1 (stereo not drawn) [Example 47, 2-(4-(trans-1-amino-3-hydroxy-3-methylcyclobutyl)phenyl)-3-phenyl-5H-benzo[e]imidazo[1,2-c][1,3]oxazine-8-carbonitrile] | 6.2 | 1.2 | – | – |
| CC1(O)CC(N)(c2ccc(-c3nc4n(c3-c3ccsc3)COc3cccc(F)c3-4)cc2)C1 (stereo not drawn) [Example 6, trans-3-amino-3-(4-(10-fluoro-3-(thiophen-3-yl)-5H-benzo[e]imidazo[1,2-c][1,3]oxazin-2-yl)phenyl)-1-methylcyclobutanol] | 9.8 | 0.91 | – | – |
| NC1(c2ccc(-c3nc4n(c3-c3ccccc3)COc3cccc(Cl)c3-4)cc2)CC(O)(C2CC2)C1 (stereo not drawn) [Example 22, trans-3-amino-3-(4-(10-chloro-3-phenyl-5H-benzo[e]imidazo[1,2-c][1,3]oxazin-2-yl)phenyl)-1-cyclopropylcyclobutanol] | 8.2 | 0.3 | – | – |
| COc1cccc2c1OCn1c-2nc(-c2ccc([C@]3(N)C[C@@](O)(C4CC4)C3)cc2)c1-c1ccccc1 [Example 19, trans-3-amino-1-cyclopropyl-3-(4-(7-methoxy-3-phenyl-5H-benzo[e]imidazo[1,2-c][1,3]oxazin-2-yl)phenyl)cyclobutanol] | 16 | 2 | – | – |
| CC1(O)CC(N)(c2ccc(-c3nc4n(c3-c3ccncc3)COc3cccc(F)c3-4)cc2)C1 (stereo not drawn) [Example 7, trans-3-amino-3-(4-(10-fluoro-3-(pyridin-4-yl)-5H-benzo[e]imidazo[1,2-c][1,3]oxazin-2-yl)phenyl)-1-methylcyclobutanol] | 25 | 1.1 | – | – |
| COc1ccc2c(c1)-c1nc(-c3ccc(C4(N)CC(C)(O)C4)cc3)c(-c3ccccc3)n1CO2 (stereo not drawn) [Example 20, trans-3-amino-3-(4-(9-methoxy-3-phenyl-5H-benzo[e]imidazo[1,2-c][1,3]oxazin-2-yl)phenyl)-1-methylcyclobutanol] | 2.9 | 0.75 | – | – |
| C[C@]1(O)C[C@@](N)(c2ccc(-c3nc4n(c3-c3ccccc3)COc3cc(F)ccc3-4)cc2)C1 [Example 9, trans-3-amino-3-(4-(8-fluoro-3-phenyl-5H-benzo[e]imidazo[1,2-c][1,3]oxazin-2-yl)phenyl)-1-methylcyclobutanol] | 8.5 | 2 | – | – |
| CCONC(=O)c1ccc2c(c1)-c1nc(-c3ccc([C@]4(N)C[C@](C)(O)C4)cc3)c(-c3ccccc3)n1CO2 [Example 61, 2-(4-(trans-1-amino-3-hydroxy-3-methylcyclobutyl)phenyl)-N-ethoxy-3-phenyl-5H-benzo[e]imidazo[1,2-c][1,3]oxazine-9-carboxamide] | 1.8 | 0.4 | – | – |
| NC1(c2ccc(-c3nc4n(c3-c3ccccc3)COc3cccc(F)c3-4)cc2)CCC1 [Example 3, 1-(4-(10-fluoro-3-phenyl-5H-benzo[e]imidazo[1,2-c][1, 3]oxazin-2-yl)phenyl)cyclobutanamine] | 16 | 1.2 | – | – |
| NC1(c2ccc(-c3nc4n(c3-c3ccccc3)COc3c(F)cccc3-4)cc2)CC(O)(C2CC2)C1 (stereo not drawn) [Example 10, trans-3-amino-1-cyclopropyl-3-(4-(7-fluoro-3-phenyl-5H-benzo[e]imidazo[1,2-c][1,3]oxazin-2-yl)phenyl)cyclobutanol] | 2.3 | 1.4 | – | – |
| COc1ccc2c(n1)-c1nc(-c3ccc(C4(N)CC(C)(O)C4)cc3)c(-c3ccccc3)n1CO2 (stereo not drawn) [Example 51, trans-3-amino-3-(4-(9-methoxy-3-phenyl-5H-imidazo[1,2-c]pyrido[2,3-e][1,3]oxazin-2-yl)phenyl)-1-methylcyclobutanol] | 5.5 | 1.1 | – | – |
| CC1(O)CC(N)(c2ccc(-c3nc4n(c3-c3ccccc3)COc3ccc(-c5cn[nH]c5)cc3-4)cc2)C1 (stereo not drawn) [Example 49, trans-3-amino-1-methyl-3-(4-(3-phenyl-9-(1H-pyrazol-4-yl)-5H-benzo[e]imidazo[1,2-c][1,3]oxazin-2-yl)phenyl)cyclobutanol] | 1.3 | 0.42 | – | – |
| Cc1ccc2c(n1)-c1nc(-c3ccc(C4(N)CC(C)(O)C4)cc3)c(-c3ccccc3)n1CO2 (stereo not drawn) [Example 50, trans-3-amino-1-methyl-3-(4-(9-methyl-3-phenyl-5H-imidazo[1,2-c]pyrido[2,3-e][1,3]oxazin-2-yl)phenyl)cyclobutanol] | 11 | 0.85 | – | – |
| NC1(c2ccc(-c3nc4n(c3-c3ccccc3)COc3ccncc3-4)cc2)CCC1 [Example 33, 1-(4-(3-phenyl-5H-imidazo[1,2-c]pyrido[3,4-e][1,3]oxazin-2-yl)phenyl)cyclobutanamine] | 14 | 1.7 | – | – |
| CC1(O)CC(N)(c2ccc(-c3nc4n(c3-c3ccccc3)COc3cc(CO)ccc3-4)cc2)C1 (stereo not drawn) [Example 45, trans-3-amino-3-(4-(8-(hydroxymethyl)-3-phenyl-5H-benzo[e]imidazo[1,2-c][1,3]oxazin-2-yl)phenyl)-1-methylcyclobutanol] | 8.6 | 2.7 | – | – |
| trans-3-amino-1-methyl-3-(4-(3-phenyl-5H-imidazo[1,2-c]pyrazino[2,3-e][1,3]oxazin-2-yl)phenyl)cyclobutanol [Example 42] | 6.4 | 4 | – | – |
| NC1(c2ccc(-c3nc4n(c3-c3ccccc3)COc3ccccc3-4)cc2)CCC1 [Example 13, 1-(4-(3-phenyl-5H-benzo[e]imidazo[1,2-c][1,3]oxazin-2-yl)phenyl)cyclobutanamine] | 13 | 2.8 | – | – |
| CC[C@]1(O)C[C@@](N)(c2ccc(-c3nc4n(c3-c3ccccc3)COc3ccncc3-4)cc2)C1 [Example 34, trans-3-amino-1-ethyl-3-(4-(3-phenyl-5H-imidazo[1,2-c]pyrido[3,4-e][1,3]oxazin-2-yl)phenyl)cyclobutanol] | 12 | 2.1 | – | – |
